Data set [1] has as its system YAP. In words: TEAD-LUC activation assay (293A-TEAD-LUC reporter). Format: cell-based. Conditions: Homo sapiens, Table 3; read-out: TEAD-LUC activation assay EC50.
Description: More specifically, we used a 293A cell line harboring a stably integrated cassette containing 8 copies of the TEAD binding element upstream of luciferase (8xGTII-LUC). These cells retain responsiveness to contact inhibition-induced decreases in YAP transcriptional output.^6 The TEAD-responsive reporter assay (called 293A-TEAD-LUC throughout) was adapted to 1536-well format and then used to screen a library of ˜738k compounds for YAP-inducing activity.
Additional compounds of the present disclosure were subjected to the assay described above.
Data set [2] can be described thus: Cytotoxicity in the TEAD-LUC activation assay. Particulars: human.

Molecules are shown by their SMILES. Bounds are passed on as bounds.

Our source for the EC50 and IC50 values is patent US20240148747A1, “SMALL MOLECULE ACTIVATORS OF YAP TRANSCRIPTIONAL ACTIVITY FOR REGENERATIVE ORGAN REPAIR” (THE SCRIPPS RESEARCH INSTITUTE, priority 2021, published 2024).

As for `O=C(NCCCn1cccc1)c1cc(-c2cccc(Cl)c2)on1` [Compound 1], the EC50 in data set [1] was over 20 µM. Also, the IC50 in data set [2] was over 20 µM.
Regarding `O=C(NCCCn1cccc1)c1cc(-c2ccc(F)cc2)on1` [Compound 2], the EC50 in data set [1] is 1.13 µM. Besides, the IC50 in data set [2] is over 20 µM.
As to `COc1ccc(-c2cc(C(=O)NCCCn3cccc3)no2)cc1` [Compound 3], the EC50 in data set [1] is over 20 µM. The IC50 in data set [2] was over 20 µM.
For the compound `O=C(NCCCn1ccc2ccccc21)c1cc(-c2ccccc2)on1` [Compound 4], the EC50 in data set [1] came to 1.41 µM. The same compound showed an IC50 in data set [2] of over 20 µM.
On the same counts, the results for `O=C(NCCCN1CCCC1)c1cc(-c2ccccc2)on1` [Compound 5] are over 20 µM and over 20 µM.
In the same order, the values of `O=C(NCCCNc1ccccc1)c1cc(-c2ccccc2)on1` [Compound 6] are 0.91 µM and over 20 µM.
On to `O=C(NCCCn1nccn1)c1cc(-c2ccccc2)on1` [Compound 7], for which the EC50 in data set [1] worked out at 1.13 µM. This compound also came in with an IC50 in data set [2] of over 20 µM.
Regarding `O=C(NCCCn1cccc1)c1cc(-c2cccc(F)c2)on1` [Compound 9], the EC50 in data set [1] is over 20 µM. The compound further came in with an IC50 in data set [2] of over 20 µM.
Take `O=C(NCCCn1cccc1)c1cc(-c2ccccc2)[nH]n1` [Compound 10]: the EC50 in data set [1] is over 20 µM. In data set [2], this compound had an IC50 of over 20 µM.
Regarding `Cn1nc(C(=O)NCCCn2cccc2)cc1-c1ccccc1` [Compound 11], in data set [1], the EC50 is over 20 µM. Besides, the IC50 in data set [2] was over 20 µM.
Take `O=C(NCCCCn1cccc1)c1cc(-c2ccccc2)on1` [Compound 12]: the EC50 in data set [1] came to 1.88 µM. For the same compound, the 50% inhibitory concentration (IC50) in data set [2] is over 20 µM.
In the case of `O=C(NCCCn1ccnn1)c1cc(-c2ccccc2)on1` [Compound 14], the EC50 in data set [1] is 1.93 µM. In addition, the IC50 in data set [2] was over 20 µM.
In the same order, the values of `O=C(NCCn1cccc1)c1cc(-c2ccccc2)on1` [Compound 15] are 1.87 µM and over 20 µM.
In the same order, the values of `O=C(NCCCn1cccc1)c1cc(-c2ccccc2F)on1` [Compound 16] are 1.27 µM and over 20 µM.
In the same order, the values of `Cc1c(C(=O)NCCCn2cccc2)noc1-c1ccccc1` [Compound 18] are over 20 µM and over 20 µM.
Take `Cc1ccn(CCCNC(=O)c2cc(-c3ccccc3)on2)c1` [Compound 19]: in data set [1], the EC50 was 5.16 µM. For the same compound, in data set [2], the IC50 is over 20 µM.
Take `N#Cc1ccc(-c2cc(C(=O)NCCCn3cccc3)no2)cc1` [Compound 20]: the EC50 in data set [1] was over 20 µM. Moreover, the IC50 in data set [2] is over 20 µM.
`O=C(NCCCn1cccc1)c1cc(-c2cccnc2)on1` [Compound 21]: in data set [1], the EC50 is over 20 µM. For the same compound, in data set [2], the IC50 was over 20 µM.
For `O=C(NCCCn1cccc1)c1noc(-c2ccccc2)n1` [Compound 22], the EC50 in data set [1] is over 20 µM. Also, the IC50 in data set [2] is over 20 µM.
As for `CN(CCCNC(=O)c1cc(-c2ccccc2)on1)S(C)(=O)=O` [Compound 24], the EC50 in data set [1] was found to be 2.76 µM. The IC50 in data set [2] was over 20 µM.
In the same order, the values of `O=C(NCCCn1ccc(-c2ccccc2)c1)c1cc(-c2ccccc2)on1` [Compound 26] are over 20 µM and over 20 µM.
In the same order, the values of `O=C(NCCCc1ncco1)c1cc(-c2ccccc2)on1` [Compound 27] are 3.8 µM and over 20 µM.
On the same counts, the results for `O=C(NCCCc1ncno1)c1cc(-c2ccccc2)on1` [Compound 28] are 1.67 µM and over 20 µM.
As to `O=C(NCCCn1cccc1)c1cc(-c2ccncc2)on1` [Compound 29], in data set [1], the EC50 is over 20 µM. Further, in data set [2], the IC50 is over 20 µM.
As to `O=C(NCCCn1cccc1)c1noc2c1OCc1ccccc1-2` [Compound 31], in data set [1], the 50% effective concentration (EC50) was over 20 µM. Also, the IC50 in data set [2] was over 20 µM.
For `NC(=O)c1ccc(-c2cc(C(=O)NCCCc3nccs3)no2)cc1` [Compound 32], the EC50 in data set [1] is over 20 µM. This compound registered an IC50 in data set [2] of over 20 µM.
In the case of `O=C(NCCCc1nccs1)c1noc(-c2ccccc2)c1-c1ccccc1` [Compound 33], in data set [1], the EC50 was over 20 µM. Further, the IC50 in data set [2] was over 24 µM.
In the same order, the values of `O=C(NCCCc1nccs1)c1noc2ccccc12` [Compound 34] are over 20 µM and over 20 µM.
On to `O=C(NCCCc1nccs1)c1cn2ccccc2n1` [Compound 35], for which the EC50 in data set [1] is over 20 µM. In data set [2], this compound yielded an IC50 of over 20 µM.
Take `CC(=O)N1CCN(CCCNC(=O)c2cc(-c3ccccc3)on2)CC1` [Compound 36]: in data set [1], the EC50 is 4.36 µM. In addition, in data set [2], the IC50 is over 20 µM.
Turning to `O=C(Nc1cccc(-c2nccs2)c1)c1cc(-c2ccccc2)on1` [Compound 37], the EC50 in data set [1] was 15 µM. This compound yielded an IC50 in data set [2] of over 20 µM.
On the same counts, the results for `O=C(NCCCN1CCN(C(=O)c2ccccc2)CC1)c1cc(-c2ccccc2)on1` [Compound 38] are 3.34 µM and over 20 µM.
On the same counts, the results for `CS(=O)(=O)c1ccc(-c2cc(C(=O)NCCCc3nccs3)no2)cc1` [Compound 39] are over 20 µM and over 20 µM.
In the same order, the values of `O=C(NCCCc1nccs1)c1cc(-c2ccc(-c3ccccc3)cc2)on1` [Compound 40] are over 20 µM and over 20 µM.
As for `COC(=O)N1CCN(CCCNC(=O)c2cc(-c3ccccc3)on2)CC1` [Compound 41], the 50% effective concentration (EC50) in data set [1] amounted to 3.38 µM. In data set [2], this compound came in with an IC50 of over 20 µM.
In the same order, the values of `NS(=O)(=O)c1ccc(-c2cc(C(=O)NCCCc3nccs3)no2)cc1` [Compound 42] are over 20 µM and over 20 µM.
Turning to `CC(C)(CNC(=O)c1cc(-c2ccccc2)on1)C(F)(F)F` [Compound 43], in data set [1], the EC50 is over 20 µM. The same compound registered an IC50 in data set [2] of over 20 µM.
Consider `CC(C)(NC(=O)c1cc(-c2ccccc2)on1)C(F)(F)F` [Compound 44], for which the EC50 in data set [1] was over 20 µM. Also, the IC50 in data set [2] is over 20 µM.
For the compound `O=C(NC1CC(OC(F)F)C1)c1cc(-c2ccccc2)on1` (stereo not drawn) [Compound 45], the EC50 in data set [1] came to 3.17 µM. The compound also gave an IC50 in data set [2] of over 20 µM.
In the same order, the values of `CC(F)(F)C(C)(C)NC(=O)c1cc(-c2ccccc2)on1` [Compound 46] are over 20 µM and over 20 µM.
On the same counts, the results for `O=C(NCCc1ccc(Cl)c(F)c1)c1cc(-c2ccccc2)on1` [Compound 47] are over 20 µM and 15 µM.
In the same order, the values of `Cc1ccc(CCNC(=O)c2cc(-c3ccccc3)on2)cc1` [Compound 48] are over 20 µM and over 20 µM.
Regarding `O=C(NCCc1c[nH]c2ccccc12)c1cc(-c2ccccc2)on1` [Compound 49], the EC50 in data set [1] was over 20 µM. In data set [2], this compound gave an IC50 of over 20 µM.
Consider `C[C@H](NC(=O)c1cc(-c2ccccc2)on1)c1ccccc1` [Compound 50], for which, in data set [1], the EC50 is over 20 µM. This compound yielded an IC50 in data set [2] of over 20 µM.
Turning to `CC(C)(C)SCCNC(=O)c1cc(-c2ccccc2)on1` [Compound 51], in data set [1], the EC50 was over 20 µM. In data set [2], this compound showed an IC50 of over 20 µM.
For `CN(CCC#N)C(=O)c1cc(-c2ccccc2)on1` [Compound 52], the EC50 in data set [1] is over 20 µM. This compound came in with an IC50 in data set [2] of over 20 µM.
Consider `COc1cccc(CCNC(=O)c2cc(-c3ccccc3)on2)c1` [Compound 53], for which, in data set [1], the EC50 is over 20 µM. This compound gave an IC50 in data set [2] of over 20 µM.
`O=C(NCc1cccs1)c1cc(-c2ccccc2)on1` [Compound 54]: the EC50 in data set [1] was over 20 µM. The concentration for half-maximal inhibition (IC50) in data set [2] is over 20 µM.

For orientation: EC50 means the concentration that produces a half-maximal response. By IC50 is commonly meant the concentration at which inhibition is half-maximal. Higher therefore signals a need for much substance.
